Results: patent US7456296B2, “Method for preparation of crystalline perindopril erbumine” (Lupin Ltd, priority 2003, dated 2008)

Tests used:
[1] = Particle Size Distribution, Mastersizer 2000 with cyclohexane as the dispersant; format: physicochemical
Description: (§1) Compressability Index, or in other words the Flowability of the two materials were determined by standard methods practiced in the art. The Particle Size Distribution was determined using a Mastersizer 2000, Version 2 instrument with cyclohexane as the dispersant.

[2] = Compressibility Index (Flowability) by standard methods; format: physicochemical; settings: crystalline powder
Description: as §1

[3] = final printed label of ACEON Tablets, cited from earlier work

CCC[C@H](N[C@@H](C)C(=O)N1[C@H](C(=O)O)C[C@@H]2CCCC[C@@H]21)C(=O)OCC [Perindopril erbumine crystallized as per the method of U.S. ]
Particle Size Distribution (10%) [1]: 16.39μ (10%);
Particle Size Distribution (50%) [1]: 70.18μ (50%);
Particle Size Distribution (90%) [1]: 188.11μ (90%)
Compressibility Index [2]: 20.00

CCC[C@H](N[C@@H](C)C(=O)N1[C@H](C(=O)O)C[C@@H]2CCCC[C@@H]21)C(=O)OCC [perindopril erbumine]
solubility in alcohol ([3]; alcohol): freely soluble
solubility in chloroform ([3]; chloroform): freely soluble
solubility in water ([3]; water): 60 % w/w

CCC[C@H](N[C@@H](C)C(=O)N1[C@H](C(=O)O)C[C@@H]2CCCC[C@@H]21)C(=O)OCC [Perindopril erbumine crystallized as per the method of the p]
Particle Size Distribution (10%) [1]: 9.06μ (10%);
Particle Size Distribution (50%) [1]: 36.37μ (50%);
Particle Size Distribution (90%) [1]: 119.78μ (90%)
Compressibility Index [2]: 23.8
